From patent US20150344466A1 (SUMITOMO CHEMICAL COMPANY, LIMITED, priority 2013, published 2015)

Legend:
Format in all cases: in vivo
Aphis gossypii = assay: Soil treatment test on Aphis gossypii on cucumber (Test Example 9); conditions: 168 h, 5 ml treatment solution in contact with soil, seven days after putting insects, read-out: controlling value
Experimental: On the other hand, cucumber was planted in a polyethylene cup with a plurality of small holes on the bottom and grown until the first true leaf was spread. A cup in which cucumber was planted was put in a plastic cup with 5 ml of the test treatment solution, so that the soil in the cup was in contact with the treatment liquid. After five days, about 20Aphis gossypii were allowed to parasitize the cucumber, and seven days after putting insects, the number of Aphis gossypii was investigated, and the controlling value was calculated according to the following equation. Controlling value (%)={1−(Cb×Tai)/([…])}×100 In the equation, the symbols represent as follows. Cb: the number of insects in a non-treated section before treatment Cai: the number of insects in a non-treated section on observation Tb: the number of insects in a treated section before treatment Tai: the number of insects in a treated section on observation

Musca domestica [1] = assay: Filter paper/sucrose bait death rate test on Musca domestica (Test Example 5); conditions: female imagoes of Musca domestica, 0.7 ml on filter paper, after 24 hours
Summary of the method: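 Filter paper in a 5.5 cm cup dosed with 0.7 ml test drug solution, with 30 mg sucrose as bait. Ten female adult houseflies released and cup sealed. Dead insects counted after 24 h; death rate (%) = dead/tested × 100.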

Culex pipiens pallens [2] = assay: Knockdown spray test on adult Culex pipiens pallens (Test Example 4); conditions: topical, 0.25 h, active ingredient 0.1% w/v, 0.5 ml sprayed, within 15 minutes, read-out: knockdown rate of the test insects within 15 minutes
Summary of the method: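 Ten adult mosquitoes in a gauze-covered cup inside a 46×46×70 cm chamber were sprayed with 0.5 ml of test solution from 30 cm at 0.4 kg/cm^2. The cup was removed at once, and knocked-down insects were counted at 2, 5 and 15 min; knockdown rate (%) = knocked-down/tested ×100.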

Blattella germanica [3] = assay: Knockdown spray test on Blattella germanica, 2.0% w/v oil formulation (Test Example 1); conditions: topical, 0.25 h, active ingredient 2.0% w/v, 1.5 ml sprayed, within 15 minutes, read-out: knockdown rate of the test insects within 15 minutes
Summary of the method: (§1)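 Ten German cockroaches (5 males, 5 females) in a mesh-bottomed, butter-walled container were sprayed with 1.5 ml test solution from 60 cm at 0.42 kg/cm^2 inside a chamber.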

Musca domestica [4] = assay: Knockdown spray test on adult Musca domestica (Test Example 3); conditions: topical, 0.25 h, active ingredient 2.0% w/v, 0.5 ml sprayed, within 15 minutes, read-out: knockdown rate of the test insects within 15 minutes
Summary of the method: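 Ten adult house flies (5 male, 5 female) in a gauze-covered cup sprayed with 0.5 ml test solution from 30 cm at 0.9 kg/cm^2 inside a chamber, then removed. Knocked-down flies counted at 2, 5 and 15 min and expressed as % of insects tested.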

Blattella germanica [5] = assay: Knockdown spray test on Blattella germanica, 0.1% w/v oil formulation (Test Example 2); conditions: topical, 0.25 h, active ingredient 0.1% w/v, 1.5 ml sprayed, within 15 minutes, read-out: knockdown rate of the test insects within 15 minutes
Summary of the method: as §1

Culex pipiens pallens [6] = assay: Larvicidal test on Culex pipiens pallens, eight days (Test Example 7); conditions: 192 h; last-instar larvae of Culex pipiens pallens; 3.5 ppm in water; eight days later; read-out: death rate
Summary of the method: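 Twenty last-instar larvae placed in 100 ml ion-exchanged water containing test drug at 3.5 ppm active ingredient. Mortality scored after eight days; death rate = dead/tested × 100.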

Plutella xylostella = assay: Foliar spray test on Plutella xylostella on cabbage (Test Example 10); conditions: 120 h, third instar larvae of Plutella xylostella on cabbage, 500 ppm spray 20 ml/cup, after five days, read-out: controlling value
Summary of the method: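 Cabbage at the third–fourth true-leaf stage sprayed with test solution at 20 ml/cup, dried, then infested with 10 third-instar larvae. Insects counted after five days; controlling value (%) calculated from treated and non-treated counts before treatment and at observation.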

Spodoptera litura = assay: Foliar spray test on Spodoptera litura on cabbage (Test Example 11); conditions: 96 h, fourth instar larvae of Spodoptera litura on cabbage, 500 ppm spray 20 ml/cup, after 4 days, read-out: controlling value
Experimental: On the other hand, cabbage was planted in a polyethylene cup, and grown until the third-fourth true leaf was spread. The test spray solution was sprayed to the cabbage at a ratio of 20 ml/cup. After the drug solution sprayed orn the cabbage was dried, 10 fourth instar larvae of Spodoptera litura were allowed to parasitize the cabbage. After 4 days, the number of surviving Spodoptera litura on the cabbage leaves was examined, and the controlling value was calculated according to the following equation. Controlling value (%)={1−(Cb×Tai)/([…])}×100 In the equation, the symbols represent as follows. Cb: the number of insects in a non-treated section before treatment Cai: the number of insects in a non-treated section on observation Tb: the number of insects in a treated section before treatment Tai: the number of insects in a treated section on observation

Culex pipiens pallens [7] = assay: Larvicidal test on Culex pipiens pallens, one day (Test Example 6); conditions: 24 h; last-instar larvae of Culex pipiens pallens; 3.5 ppm in water; one day later; read-out: death rate
Experimental: Each of the formulations of Compounds of Present Invention (39), (63), (71), (72), (92), (93), (95), (106), (150), (171), (170), (181), (182), (183), (187), (188), (189), (190), (191), (192), (200), (201), (201), (234), (246), (290) and (299) obtained in Formulation Example 15 was diluted with water, so as to have a concentration of the active ingredient of 500 ppm, to prepare a test drug solution.
20 last-instar larvae of Culex pipiens pallens were released into a liquid to which 0.7 ml of the above test drug solution was added to 100 ml of ion-exchanged water (a concentration of the active ingredient of 3.5 ppm). One day later, the life and death of the Culex pipiens pallens was examined, and the death rate was calculated. The death rate was calculated by the following equation.
Death rate (%)=(Number of dead insects/Number of tested insects)×100

Row | SMILES | pest or weed control at 500 ppm (Aphis gossypii) [%] | pest or weed control at 0.1 % strength (Culex pipiens pallens [2]) [%] | further results
1 | CCCc1cc(C(=O)NCC2CCOC2)n(C)n1 (centres unmarked) [(3), N-(tetrahydrofuran-3-ylmethyl)-1-methyl-3-propyl-1H-pyrazole-5-carboxamide] | ≥ 90 |  | 
2 | O=C(NCC1CCOC1)c1cn(Cc2ccccc2)nn1 (centres unmarked) [(9)] | ≥ 90 |  | pest or weed control at 500 ppm (Musca domestica [1]): ≥ 90%
3 | O=C(NCCC1CCOCC1)c1cc(COCc2ccccc2)on1 [(18), N-[2-(tetrahydropyran-4-yl)ethyl]-5-benzyloxymethylisoxazole-3-carboxamide] | ≥ 90 | ≥ 80 | 
4 | O=C(NCCC1CCOC1)c1cc(COCc2ccccc2)on1 (centres unmarked) [(30), N-[2-(tetrahydrofuran-3-yl)ethyl]-5-benzyloxymethylisoxazole-3-carboxamide] | ≥ 90 | ≥ 80 | pest or weed control at 2 % strength (Blattella germanica [3]): ≥ 80%; pest or weed control at 2 % strength (Musca domestica [4]): ≥ 80%
5 | O=C(NCC1COCCO1)c1cc(COCc2ccccc2)on1 (centres unmarked) [(31)] | ≥ 90 | ≥ 80 | pest or weed control at 2 % strength (Blattella germanica [3]): ≥ 80%
6 | O=C(NC[C@H]1CCOC1)c1cc(COCc2ccccc2)on1 [(33), N—[(R)-tetrahydrofuran-3-ylmethyl]-5-benzyloxymethylisoxazole-3-carboxamide] | ≥ 90 | ≥ 80 | pest or weed control at 2 % strength (Blattella germanica [3]): ≥ 80%; pest or weed control at 2 % strength (Musca domestica [4]): ≥ 80%
7 | O=C(NC[C@@H]1CCOC1)c1cc(COCc2ccccc2)on1 [(34), N—[(S)-tetrahydrofuran-3-ylmethyl]-5-benzyloxymethylisoxazole-3-carboxamide] | ≥ 90 | ≥ 80 | pest or weed control at 2 % strength (Blattella germanica [3]): ≥ 80%; pest or weed control at 2 % strength (Musca domestica [4]): ≥ 80%; pest or weed control at 500 ppm (Musca domestica [1]): ≥ 90%
8 | CC1(CNC(=O)c2cc(COCc3ccccc3)on2)CCOC1 (centres unmarked) [(36), N-(3-methyltetrahydrofuran-3-ylmethyl)-5-benzyloxymethylisoxazole-3-carboxamide] | ≥ 90 | ≥ 80 | pest or weed control at 2 % strength (Blattella germanica [3]): ≥ 80%; pest or weed control at 2 % strength (Musca domestica [4]): ≥ 80%
9 | O=C(NC1CCOCC1)c1cc(COCc2ccccc2)on1 [(43), N-(tetrahydropyran-4-yl)-5-benzyloxymethylisoxazole-3-carboxamide] | ≥ 90 | ≥ 80 | pest or weed control at 2 % strength (Blattella germanica [3]): ≥ 80%
10 | CCCCn1cc(C(=O)NCC2CCOC2)cn1 (centres unmarked) [(51), N-(tetrahydrofuran-3-ylmethyl)-1-butyl-1H-pyrazole-4-carboxamide] | ≥ 90 |  | 
11 | Cn1nc(COCc2ccccc2)cc1C(=O)NCC1CCOC1 (centres unmarked) [(52), N-(tetrahydrofuran-3-ylmethyl)-3-benzyloxymethyl-1-methyl-1H-pyrazole-5-carboxamide] | ≥ 90 |  | 
12 | CCCCn1cc(C(=O)NCC2CCOC2)nn1 (centres unmarked) [(54), N-(tetrahydrofuran-3-ylmethyl)-1-butyl-1H-1,2,3-triazole-4-carboxamide] | ≥ 90 |  | pest or weed control at 500 ppm (Musca domestica [1]): ≥ 90%
13 | CCCCc1nc(C(=O)NCC2CCOC2)no1 (centres unmarked) [(57), N-(tetrahydrofuran-3-ylmethyl)-5-butyl-1,2,4-oxadiazole-3-carboxamide] | ≥ 90 |  | 
14 | CCCCc1noc(C(=O)NCC2CCOC2)n1 (centres unmarked) [(58), N-(tetrahydrofuran-3-ylmethyl)-3-butyl-1,2,4-oxadiazole-5-carboxamide] | ≥ 90 |  | 
15 | O=C(NCC1CCOCC1)c1cc(COCc2ccc(F)cc2)on1 [(90), N-(tetrahydropyran-4-ylmethyl)-5-(4-fluorobenzyloxymethyl)isoxazole-3-carboxamide] | ≥ 90 | ≥ 80 | pest or weed control at 0.1 % strength (Blattella germanica [5]): ≥ 80%; pest or weed control at 500 ppm (Musca domestica [1]): ≥ 90%
16 | O=C(NCC1CCOC1)c1cc(COCc2ccc3c(c2)OCO3)on1 (centres unmarked) [(105), N-(tetrahydrofuran-3-ylmethyl)-5-(3,4-methylenedioxybenzyloxymethyl)isoxazole-3-carboxamide] | ≥ 90 | ≥ 80 | pest or weed control at 0.1 % strength (Blattella germanica [5]): ≥ 80%; pest or weed control at 500 ppm (Musca domestica [1]): ≥ 90%; pest or weed control at 3.5 ppm (Culex pipiens pallens [6]): ≥ 90%; pest or weed control at 500 ppm (Plutella xylostella): ≥ 90%; pest or weed control at 500 ppm (Spodoptera litura): ≥ 80%
17 | O=C(NCC1CCOCC1)c1cc(COCc2ccc3c(c2)OCO3)on1 [(106), N-(tetrahydropyran-4-ylmethyl)-5-(3,4-methylenedioxybenzyloxymethyl)isoxazole-3-carboxamide] | ≥ 90 | ≥ 80 | pest or weed control at 0.1 % strength (Blattella germanica [5]): ≥ 80%; pest or weed control at 3.5 ppm (Culex pipiens pallens [7]): ≥ 90%; pest or weed control at 3.5 ppm (Culex pipiens pallens [6]): ≥ 90%; pest or weed control at 500 ppm (Plutella xylostella): ≥ 90%; pest or weed control at 500 ppm (Spodoptera litura): ≥ 80%
18 | O=C(NCC1CCOC1)c1cc(CCCCCO)on1 (centres unmarked) [(142), N-(tetrahydrofuran-3-ylmethyl)-5-(5-hydroxypentyl)isoxazole-3-carboxamide] | ≥ 90 |  | 
19 | O=C(NCC1CCOC1)c1cc(COc2ccc(OC(F)(F)F)cc2)on1 (centres unmarked) [(190), N-(tetrahydrofuran-3-ylmethyl)-5-(4-trifluoromethoxyphenoxymethyl)isoxazole-3-carboxamide] |  | ≥ 80 | pest or weed control at 0.1 % strength (Blattella germanica [5]): ≥ 80%; pest or weed control at 3.5 ppm (Culex pipiens pallens [7]): ≥ 90%; pest or weed control at 3.5 ppm (Culex pipiens pallens [6]): ≥ 90%; pest or weed control at 500 ppm (Plutella xylostella): ≥ 90%; pest or weed control at 500 ppm (Spodoptera litura): ≥ 80%
20 | O=C(NCC1CCOC1)c1cc(COc2cccc(F)c2)on1 (centres unmarked) [(194), N-(tetrahydrofuran-3-ylmethyl)-5-(3-fluorophenoxymethyl)isoxazole-3-carboxamide] | ≥ 90 | ≥ 80 | pest or weed control at 0.1 % strength (Blattella germanica [5]): ≥ 80%
21 | O=C(NCC1CCOC1)c1cc(COc2ccc3c(c2)OCO3)on1 (centres unmarked) [(204), N-(tetrahydrofuran-3-ylmethyl)-5-(5-(1,3-benzodioxolanyl)oxymethyl)isoxazole-3-carboxamide] | ≥ 90 | ≥ 80 | pest or weed control at 0.1 % strength (Blattella germanica [5]): ≥ 80%
